Activity calls are given as the source filed them. The rule behind the calls is not given here.

Series [1] deals with A549. Briefly: Induction of apoptosis in human A549 cells assessed as increase in cleaved caspase-3 level at 0.5 uM incubated for 24 hrs by Western blot analysis. The format is functional, cell-based.
Series [2] relates to A549. The series can be described thus: Induction of cell cycle arrest in human A549 cells assessed as accumulation at G1 phase at 0.25 uM incubated for 24 hrs by PI staining based flow cytometry (reference value: 58.67 %). The format is functional.
Series [3] deals with A549. Briefly: Antitumor activity against human A549 cells xenografted in BALB/c mouse at 10 mg/kg, ip for 3 weeks administered on every 2 days relative to control. It counts as functional. As to conditions: A549, 504 h, read-out: TGI.
Series [4] concerns A549. The series can be described thus: Induction of intracellular ROS accumulation in human A549 cells at 0.5 uM incubated for 24 hrs by DCFH-DA dye based flow cytometry (reference value: 4.96 %). It counts as functional.
Series [5] has as its system MCF7. The series can be described thus: Antiproliferative activity against human MCF7 cells by CCK8 assay.
Series [6] is described as follows: Stability of compound in PBS at pH 7.4 measured for 24 to 72 hrs. The note with it: buffer, time 24-72 hrs. It counts as physicochemical.
For series [7], the system named is A549. The series can be described thus: Anti-angiogenesis effect in human A549 cells assessed as disruption of tube-like network formation at 0.25 to 0.5 uM incubated for 6 hrs by tube formation assay. It counts as functional, cell-based. As to conditions: dose 0.25-0.5 µM.
Series [8] relates to A549. The series can be described thus: Induction of cell cycle arrest in human A549 cells assessed as decrease in cdc25c by Western blot analysis. The format is functional, cell-based.
Series [9] relates to A549. The series can be described thus: Induction of apoptosis in human A549 cells assessed as late apoptotic cells at 0.5 uM incubated for 24 hrs by Annexin V-FITC/PI staining based flow cytometry (reference value: 1.01 %). The format is functional.
The test system of series [10] is A549. The series can be described thus: Induction of apoptosis in human A549 cells assessed as increase in Bax level at 0.5 uM incubated for 24 hrs by Western blot analysis. It counts as functional, cell-based.
The test system of series [11] is A549. Briefly: Induction of cell cycle arrest in human A549 cells assessed as accumulation at S phase at 0.25 uM incubated for 24 hrs by PI staining based flow cytometry (reference value: 37.95 %). The format is functional.
Series [12] can be described thus: Stability of compound in DMEM containing 1 percent DMF at pH 7.4 measured for 24 to 72 hrs. It counts as physicochemical. As to conditions: buffer, time 24-72 hrs.
Series [13] can be described thus: Toxicity in BALB/c mouse xenografted with human A549 cells assessed as effect on lung at 10 to 20 mg/kg, ip for 3 weeks administered on every 2 days by H and E staining based analysis. The note with it: in vivo, 504 h, dose 10-20 mg/kg. The format is organism-based.
Series [14] concerns A549. The series can be described thus: Induction of apoptosis in human A549 cells assessed as necrotic cells at 0.25 uM incubated for 24 hrs by Annexin V-FITC/PI staining based flow cytometry (reference value: 0.13 %). The format is functional.
Series [15] has as its target Tubulin (Homo sapiens) (UniProt P68371+Q9H4B7+P0DPH7+P68366+Q13509+Q71U36+P04350+Q3ZCM7+P07437+P68363+Q9BQE3+Q6PEY2+Q13885+Q9BVA1+Q9BUF5). The series can be described thus: Inhibition of tubulin polymerization (unknown origin) incubated for 65 mins by fluorescence based analysis. The format is protein-complex assay. The note with it: dose 0.625-20 µM.
Series [16] is described as follows: Toxicity in BALB/c mouse xenografted with human A549 cells assessed as effect on heart at 10 to 20 mg/kg, ip for 3 weeks administered on every 2 days by H and E staining based analysis. The format is organism-based. As to conditions: in vivo, 504 h, dose 10-20 mg/kg.
Series [17] in a line: Antiproliferative activity against human L02 cells by CCK8 assay. The format is toxicity, cell-based.

With `CCOP(=O)(OCC)C(Nc1ccc(CC(=O)Oc2cc(/C=C/C(=O)c3cc(OC)c(OC)c(OC)c3)ccc2OC)cc1)c1cccc([N+](=O)[O-])c1` (configuration not stated), the outcome in series [1], in series [7], in series [8] and in series [10] was Active. Further, the Activity is reported as 42.09% in series [2]; 70.79% in series [4]; 6.34% in [9]; 20.12% in [11]; “Non-toxic” in [13]; 0.3% in series [14]. For the same compound, the Activity result in series [16] is “Non-toxic”. The inhibition in vivo at 10 mg/kg in [3] stood at 53.3%. Besides, the results for the IC50 in [5] and in series [17] were 253 nM and 2210 nM, respectively. Further, the Stability entry in series [6] and in series [12] was “Stable” in each case. Moreover, the inhibition entry in series [15] was “Dose-dependent-effect”.

These data come from ChEMBL document CHEMBL6153074, “Discovery of novel dual tubulin and MMPs inhibitors for the treatment of lung cancer and overcoming drug resistance” (Eur J Med Chem, 2025).
